Data published in US5340800A, “Peptide medicaments for the treatment of disease” (priority 1992, dated 1994).
Like-named read-outs stand apart in the source and are kept apart here. No end group written: not given here.

Assays:
[1] = tested on: polymorphonuclear leukocyte adhesion to TNF activated endothelial cells; assay type: cell-based, human; details: for Average % Change of PMN Adhesion to TNF Activated ECs: average over PMN donors (# donors in parentheses)
Procedure: Leukocyte adherence can be measured using several assays known in the art, and the preferred assay is described by Charo, et al., 1985, Blood, 65:473. Briefly, the assay consists of labelling leukocytes with an appropriate label, incubating them with endothelial cells and determining the number of leukocytes that adhere. Preferably the cells are labelled with a gamma ray emitting isotope and the preferred labels are ^111 Indium-oxide or ^51 chromium.
Leukocytes may be isolated from human donors using standard techniques. This generally consists of isolating blood in a physiologically balanced salt solution containing an appropriate anticoagulant, and separating the leukocytes by an appropriate separation step, preferably on Ficoll-Hypaquegradients. Contaminating erythrocytes can be removed by hypotonic lysis. The resulting leukocytes are suspended in a physiologically buffered solution, pH 7.4. The preferred physiological buffered solution is Hank's balanced salt solution that is calcium and magnesium free.
The isolated leukocytes can then be labelled by incubating them for an appropriate time, generally 15 minutes, with the desired radioisotope at a predetermined concentration. The radiolabelled cells are washed to remove unincorporated label, and then suspended in an appropriate solution to perform the adhesion assay described below.
Endothelial cells can be prepared from a number of sources and by several techniques known in the art. Preferably they are obtained from human umbilical veins using the procedure of Charo et al., above. Generally, endothelial cells are isolated by enzymatic digestion of the umbilical veins using, preferably, collagenase as described by Jaffe, E. A., et al., 1973, J. of Clin. Invest, 52:2745. The cells are grown on an appropriate tissue culture substratum, preferably gelatine-coated surfaces.
The endothelial cells may be grown in a variety of tissue culture media containing appropriate supplements such as an appropriate concentration of fetal calf serum, and other supplements/additives routinely utilized by those skilled in this art that are recognized as being favorable for endothelial cells. The endothelial cells may be passaged with a dilute solution of an appropriate protease, and if desired a metal ion chelator. Preferably a solution consisting of 0.05 to 0.25% trypsin and 0.02% EDTA is used. To ensure that the cells are indeed endothelial cells, they are tested by immunofluorescence for Factor VIII antigen, a known endothelial cell marker.
Leukocyte adherence to endothelial cell monolayers may be determined as follows. Early passage endothelial cells, generally not beyond the fifth passage, are cultured on an appropriate substratum and in a suitable cell culture medium. The culture substratum is preferably pre-coated with an appropriate substance that enhances the adherence of the endothelial cells. Several such substances are known including fibronectin, poly-L-lysine, gelatin and laminin. Fibronectin is preferred. An appropriate culture substratum is a 96 well micro titer plate, and a suitable medium is Medium 199 containing fetal calf serum and other supplements known to be beneficial for the growth and maintenance of endothelial cells that are well known to those skilled in the art. Prior to adding a predetermined number of labelled leukocytes, the endothelial cell monolayer is washed with a physiologically balanced salt solution containing a reduced amount of fetal calf serum, preferably 1%. The preferred solution is RPMI supplemented with 1% fetal calf serum.
The endothelial cell monolayer containing added leukocytes is incubated for a time sufficient to permit maximum adherence of the leukocytes, and preferably this is conducted at 37° C. for 30 minutes in an appropriate cell culture atmosphere. Generally this would consist of growing and incubating the cells for the assay period in 5% CO2, 95% air, and 95% humidity. […]

[2] = tested on: polymorphonuclear leukocyte migration; assay: Chemotaxis of polymorphonuclear leukocytes (trans-well, zymosan-activated human serum); assay type: cell-based; details: for inhibition of chemotaxis migration (in words): 10^-4 -10^-5 M
Procedure: The materials and methods for ascertaining the chemotactic inhibitory properties of peptides are generally known in the art, and the preferred procedure is described by Capsoni, et al., 1989, J. of Immunol. Meth., 120:125. Generally, chemotaxis is determined by positioning the leukocytes and a chemotactic substance on opposite sides of a membrane in appropriate culture media. The preferred apparatus for doing a chemotaxis assay is produced by Costar Corporation, Cambridge, Mass., and is termed the trans-well cell culture apparatus. […] If a substance is being tested for inhibitory activity this can be achieved by combining it with the leukocytes or the chemotactic substance.
The procedure of Capsoni, et al., above, was followed with the following modifications. Leukocytes may be isolated and labelled with ^111 Indium as described for the adhesion assay, above. The cells are resuspended after labelling in an appropriate cell culture medium at about 5×10^6 cells/ml. Next, a desired amount of the cell suspension is mixed with a predetermined amount of the peptide(s) to be tested for inhibitory activity, and the mixture added to an appropriate filter device. Three μm-pore membranes are situated in the wells of a 24 trans-well tissue culture plate. The cell/inhibitory peptide mixture is incubated for a short time at 37° C. to acclimate the cells to the membrane surface, and to provide sufficient time for them to settle onto the membrane surface. Next, inserts are set in wells containing cell culture media. The media contains zymosan-activated human serum at about 0.5%. Zymosan activation generates complement-derived chemotactic factors which attract the leukocytes through the pores of the membrane. This media was also prewarmed for an appropriate time prior to addition to the cell culture wells. After a 30 minute incubation period at 37° C., the number of leukocytes that have migrated through the membrane filter, in the presence or absence of CD18 peptides, is readily determined by counting the amount of ^111 Indium present in the media. This may be facilitated by adding an appropriate detergent at an appropriate concentration to the media in the wells prior to removing an aliquot for counting. In this way, the inhibitory activities of the peptide being tested could be determined.
Many of the materials and methods used to test the inhibitory activity of the CD18 peptides on the chemotactic response of the polymorphonuclear leukocytes are similar or identical to those used to perform the adhesion assays described in Example 1. Polymorphonuclear leukocytes were isolated and labelled with ^111 Indium as described before, and the cells were suspended in RPMI 1640 culture medium at a concentration of 5×10^6 /ml. Next, 75 μl of the cell suspension and 25 μl of media containing a desired concentration of a CD18 peptide were added to trans-well inserts, and the mixture was incubated at 37° C. for 10 minutes.
To the bottom wells of the 24-well plate 0.6 ml of media containing 0.5% zymosan-activated human serum was added. This solution was also warmed to 37° C. for 10 minutes prior to use.
Next, the assay was conducted by incubating the trans-well inserts containing the cell suspension with the desired CD18 peptide in the 24-well plates at 37° C. for 30 minutes. Subsequently, the inserts were removed, and 60 μl of a 10% sodium dodecyl sulphate solution was added to the wells of the 24-well plate. The plates were incubated with gentle shaking at room temperature for 15 minutes, and 110 μl aliquots were removed and the amount of ^111 Indium determined using a gamma-counter.

Sequence	activity on PMN adhesion at 10^-4 M (in words) ([1]; 10^-4 M)	Average % Change of PMN Adhesion to TNF Activated ECs ([1]; 10^-4 M)	Average % Change of PMN Adhesion to TNF Activated ECs ([1]; 10^-6 M)	Average % Change of PMN Adhesion to TNF Activated ECs ([1]; 10^-8 M)	inhibition of chemotaxis migration (in words) [2]	percent inhibition (-) or enhancement of polymorphonuclear leukocyte migration ([2]; 10^-4 M, donor 195)	percent inhibition (-) or enhancement of polymorphonuclear leukocyte migration ([2]; 10^-4 M, donor 499)	percent inhibition (-) or enhancement of polymorphonuclear leukocyte migration ([2]; 10^-4 M, donor 591)	percent inhibition (-) or enhancement of polymorphonuclear leukocyte migration ([2]; 10^-4 M, donor 593)	percent inhibition (-) or enhancement of polymorphonuclear leukocyte migration ([2]; 10^-5 M, donor 195)	percent inhibition (-) or enhancement of polymorphonuclear leukocyte migration ([2]; 10^-5 M, donor 499)	percent inhibition (-) or enhancement of polymorphonuclear leukocyte migration ([2]; 10^-5 M, donor 591)	percent inhibition (-) or enhancement of polymorphonuclear leukocyte migration ([2]; 10^-5 M, donor 593)	percent inhibition (-) or enhancement of polymorphonuclear leukocyte migration ([2]; 10^-6 M, donor 195)	percent inhibition (-) or enhancement of polymorphonuclear leukocyte migration ([2]; 10^-6 M, donor 499)	percent inhibition (-) or enhancement of polymorphonuclear leukocyte migration ([2]; 10^-6 M, donor 591)	percent inhibition (-) or enhancement of polymorphonuclear leukocyte migration ([2]; 10^-6 M, donor 593)	Average % Change of PMN Adhesion to TNF Activated ECs ([1]; 10^-5 M)	Average % Change of PMN Adhesion to TNF Activated ECs ([1]; 10^-7 M)
FDYPSVGQLAHKLAENNIQPIFAVT [Peptide 2-24, NH2 --Phe--Asp--Tyr--Pro--Ser--Val--Gly--Gln--Leu--Ala--His--Lys--Leu--Ala--Glu--Asn--Asn--Ile--Gln--Pro--Ile--Phe--Ala--Val--Thr--COOH]	show activity	-79%	-10%	-2%	marked inhibition	-48%	-77%	-73%	-89%	-33%	-33%	-9%	-40%	22%	0%	-17%	-22%		
IPKSAVGELSEDSSNVVHLIKNAYNKLSS [Peptide 3-29, NH2 --Ile--Pro--Lys--Ser--Ala--Val--Gly--Glu--Leu--Ser--Glu--Asp--Ser--Ser--Asn--Val--Val--His--Leu--Ile--Lys--Asn--Ala--Tyr--Asn--Lys--Leu--Ser--Ser--COOH]	show activity	-58%	-5%	-2%	marked inhibition	-7%	-33%	-57%	-85%	11%	23%	-6%	-17%	-26%	-10%	11%	-6%	+12%	+27%
RIGFGSFVDKTVLPFVNTHPDKLRN [Peptide 6-25, NH2 --Arg--Ile--Gly--Phe--Gly--Ser--Phe--Val--Asp--Lys--Thr--Val--Leu--Pro--Phe--Val--Asn--Thr--His--Pro--Asp--Lys--Leu--Arg--Asn--COOH]		-13%	+8%	+12%		-4%	-3%	-16%	-51%	11%	-13%	49%	26%	-44%	-8%	49%	20%		
VGKQLISGNLDAPEGGLDAMMQVA [Peptide 5-24, NH2 --Val--Gly--Lys--Gln--Leu--Ile--Ser--Gly--Asn--Leu--Asp--Ala--Pro--Glu--Gly--Gly--Leu--Asp--Ala--Met--Met--Gln--Val--Ala--COOH]		-17%	-13%	-6%		-52%	0%	51%	-33%	-56%	-15%	55%	12%	-22%	-26%	52%	-4%		
